Results published in patent publication US8134015B2, “Compound inhibiting in vivo phosphorous transport and medicine containing the same” (Kyowa Hakko Kirin Co., Ltd., priority 2003, dated 2012).

The compounds below were run against T1, rat NaPi-2b (Rattus norvegicus, UniProt Q9JJ09) (assay: Sodium-dependent phosphate uptake of Xenopus oocytes which expressed NaPi-2b (32P)). Details: Xenopus oocytes expressing rat NaPi-2b, 32P radioactive phosphorus; read-out: IC50 (phosphate uptake inhibitory activity).
T1 construct: expressed in transfected cells; host or cells: Xenopus oocytes injected with cRNA
T1 sequence (Q9JJ09 1-695): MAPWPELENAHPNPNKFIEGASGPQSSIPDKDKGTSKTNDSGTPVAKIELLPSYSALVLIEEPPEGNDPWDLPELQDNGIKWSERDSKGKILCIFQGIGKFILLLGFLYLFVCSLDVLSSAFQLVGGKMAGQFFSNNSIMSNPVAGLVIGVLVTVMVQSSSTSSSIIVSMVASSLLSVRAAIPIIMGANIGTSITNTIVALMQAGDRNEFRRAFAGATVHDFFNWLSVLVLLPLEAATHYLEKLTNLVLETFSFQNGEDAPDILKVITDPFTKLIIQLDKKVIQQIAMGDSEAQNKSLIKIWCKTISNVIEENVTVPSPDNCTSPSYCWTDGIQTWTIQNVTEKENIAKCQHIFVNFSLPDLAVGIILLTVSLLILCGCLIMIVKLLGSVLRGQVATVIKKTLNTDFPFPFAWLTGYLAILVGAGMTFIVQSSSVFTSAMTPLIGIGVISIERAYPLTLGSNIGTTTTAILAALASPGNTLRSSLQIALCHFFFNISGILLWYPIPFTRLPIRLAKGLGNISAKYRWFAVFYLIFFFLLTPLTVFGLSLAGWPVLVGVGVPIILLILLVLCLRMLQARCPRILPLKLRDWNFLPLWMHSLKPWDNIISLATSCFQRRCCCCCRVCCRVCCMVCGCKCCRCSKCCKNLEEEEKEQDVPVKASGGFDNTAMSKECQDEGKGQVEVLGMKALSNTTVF
Format: cell-based
Outline: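 Rat NaPi-2b cloned from small-intestine cDNA; cRNA injected into Xenopus oocytes, expression for 2 days. Phosphate uptake inhibition measured with 32P; percent inhibition at 300 μM and 100 μM read from the same inhibition curve.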

Row | SMILES | IC50 [µM]
1 | COc1cccc(/C=N/NC(=O)c2cc(Cl)ccc2NC(=O)c2cccc(CN(C)CCO)c2)c1 [Compound 400, N-[4-Chloro-2-(3-methoxy-benzylidene-hydrazinocarbonyl)-phenyl]-3-{[(2-hydroxy-ethyl)-methyl-amino]-methyl}-benzamide] | < 0.3
2 | COc1ccc(/C=N/NC(=O)c2cc(Cl)ccc2NC(=O)c2cccc(CN(C)CCO)c2)cc1 [Compound 401, N-[4-Chloro-2-(4-methoxy-benzylidene-hydrazinocarbonyl)-phenyl]-3-{[(2-hydroxy-ethyl)-methyl-amino]-methyl}-benzamide] | 6.13
3 | CN(CCO)Cc1cccc(C(=O)Nc2ccc(Cl)cc2C(=O)N/N=C/c2cccc(O)c2)c1 [Compound 402, N-[4-Chloro-2-(3-hydroxy-benzylidene-hydrazinocarbonyl)-phenyl]-3-{[(2-hydroxy-ethyl)-methyl-amino]-methyl}-benzamide] | 14.1
4 | Cc1cccc(/C=N/NC(=O)c2cc(Cl)ccc2NC(=O)c2cccc(CN(CCO)CCO)c2)c1 [Compound 404, 3-{[Bis-(2-hydroxy-ethyl)-amino]-methyl}-N-[4-chloro-2-(3-methyl-benzylidene-hydrazinocarbonyl)-phenyl]-benzamide] | 2.18
5 | Cc1ccc(/C=N/NC(=O)c2cc(Cl)ccc2NC(=O)c2cccc(CN(CCO)CCO)c2)cc1 [Compound 405, 3-{[Bis-(2-hydroxy-ethyl)-amino]-methyl}-N-[4-chloro-2-(4-methyl-benzylidene-hydrazinocarbonyl)-phenyl]-benzamide] | 1.9
6 | Cc1ccc(/C=N/NC(=O)c2cc(Cl)ccc2NC(=O)c2cccc(CN(CCO)CCO)c2)cc1C [Compound 406, 3-{[Bis-(2-hydroxy-ethyl)-amino]-methyl}-N-[4-chloro-2-(3,4-dimethyl-benzylidene-hydrazinocarbonyl)-phenyl]-benzamide] | 0.88
7 | COc1cccc(/C=N/NC(=O)c2cc(Cl)ccc2NC(=O)c2cccc(CN(CCO)CCO)c2)c1 [Compound 408, 3-{[Bis-(2-hydroxy-ethyl)-amino]-methyl}-N-[4-chloro-2-(3-methoxy-benzylidene-hydrazinocarbonyl)-phenyl]-benzamide] | 0.69
8 | COc1ccc(/C=N/NC(=O)c2cc(Cl)ccc2NC(=O)c2cccc(CN(CCO)CCO)c2)cc1 [Compound 409, 3-{[Bis-(2-hydroxy-ethyl)-amino]-methyl}-N-[4-chloro-2-(4-methoxy-benzylidene-hydrazinocarbonyl)-phenyl]-benzamide] | 2.52
9 | O=C(Nc1ccc(Cl)cc1C(=O)N/N=C/c1cccc(O)c1)c1cccc(CN(CCO)CCO)c1 [Compound 410, 3-{[Bis-(2-hydroxy-ethyl)-amino]-methyl}-N-[4-chloro-2-(3-hydroxy-benzylidene-hydrazinocarbonyl)-phenyl]-benzamide] | 4.05
10 | O=C(Nc1ccc(Cl)cc1C(=O)N/N=C/c1ccc(O)cc1)c1cccc(CN(CCO)CCO)c1 [Compound 411, 3-{[Bis-(2-hydroxy-ethyl)-amino]-methyl}-N-[4-chloro-2-(4-hydroxy-benzylidene-hydrazinocarbonyl)-phenyl]-benzamide] | 10.1
11 | CN(CCO)Cc1ccc(C(=O)Nc2ccc(Cl)cc2C(=O)N/N=C/c2cccc(F)c2)cc1 [Compound 412, N-[4-Chloro-2-(3-fluoro-benzylidene-hydrazinocarbonyl)-phenyl]-4-{[(2-hydroxy-ethyl)-methyl-amino]-methyl}-benzamide] | 7.96
12 | CN(CCO)Cc1ccc(C(=O)Nc2ccc(Cl)cc2C(=O)N/N=C/c2ccc(F)cc2)cc1 [Compound 413, N-[4-Chloro-2-(4-fluoro-benzylidene-hydrazinocarbonyl)-phenyl]-4-{[(2-hydroxy-ethyl)-methyl-amino]-methyl}-benzamide] | < 3
13 | COc1cccc(/C=N/NC(=O)c2cc(Cl)ccc2NC(=O)c2ccc(CN(C)CCO)cc2)c1 [Compound 418, N-[4-Chloro-2-(3-methoxy-benzylidene-hydrazinocarbonyl)-phenyl]-4-{[(2-hydroxy-ethyl)-methyl-amino]-methyl}-benzamide] | 9.38
14 | COc1ccc(/C=N/NC(=O)c2cc(Cl)ccc2NC(=O)c2ccc(CN(C)CCO)cc2)cc1 [Compound 419, N-[4-Chloro-2-(4-methoxy-benzylidene-hydrazinocarbonyl)-phenyl]-4-{[(2-hydroxy-ethyl)-methyl-amino]-methyl}-benzamide] | 9.2
15 | CN(CCO)Cc1ccc(C(=O)Nc2ccc(Cl)cc2C(=O)N/N=C/c2cccc(O)c2)cc1 [Compound 420, N-[4-Chloro-2-(3-hydroxy-benzylidene-hydrazinocarbonyl)-phenyl]-4-{[(2-hydroxy-ethyl)-methyl-amino]-methyl}-benzamide] | 27.1
16 | CCN(CCO)Cc1cccc(C(=O)Nc2ccc(Cl)cc2C(=O)N/N=C/c2cccc(F)c2)c1 [Compound 422, N-[4-Chloro-2-(3-fluoro-benzylidene-hydrazinocarbonyl)-phenyl]-3-{[ethyl-(2-hydroxy-ethyl)-amino]-methyl}-benzamide] | 1.15
17 | CCN(CCO)Cc1cccc(C(=O)Nc2ccc(Cl)cc2C(=O)N/N=C/c2ccc(F)cc2)c1 [Compound 423, N-[4-Chloro-2-(4-fluoro-benzylidene-hydrazinocarbonyl)-phenyl]-3-{[ethyl-(2-hydroxy-ethyl)-amino]-methyl}-benzamide] | < 3
18 | CCN(CCO)Cc1cccc(C(=O)Nc2ccc(Cl)cc2C(=O)N/N=C/c2cccc(C)c2)c1 [Compound 424, N-[4-Chloro-2-(3-methyl-benzylidene-hydrazinocarbonyl)-phenyl]-3-{[ethyl-(2-hydroxy-ethyl)-amino]-methyl}-benzamide] | 1.79
19 | CCN(CCO)Cc1cccc(C(=O)Nc2ccc(Cl)cc2C(=O)N/N=C/c2ccc(Cl)c(C(F)(F)F)c2)c1 [Compound 427, N-[4-Chloro-2-(4-chloro-3-trifluoromethyl-benzylidene-hydrazinocarbonyl)-phenyl]-3-{[ethyl-(2-hydroxy-ethyl)-amino]-methyl}-benzamide] | < 3

Second part, the compound after the results:

Row | IC50 [µM] | SMILES
20 | 26.7 | CN(CCO)Cc1cccc(C(=O)Nc2ccc(Cl)cc2C(=O)N/N=C/c2ccc(O)cc2)c1 [Compound 403, N-[4-Chloro-2-(4-hydroxy-benzylidene-hydrazinocarbonyl)-phenyl]-3-{[(2-hydroxy-ethyl)-methyl-amino]-methyl}-benzamide]
21 | 0.57 | O=C(Nc1ccc(Cl)cc1C(=O)N/N=C/c1ccc(Cl)c(C(F)(F)F)c1)c1cccc(CN(CCO)CCO)c1 [Compound 407, 3-{[Bis-(2-hydroxy-ethyl)-amino]-methyl}-N-[4-chloro-2-(4-chloro-3-trifluoromethyl-benzylidene-hydrazinocarbonyl)-phenyl]-benzamide]
22 | < 3 | Cc1cccc(/C=N/NC(=O)c2cc(Cl)ccc2NC(=O)c2ccc(CN(C)CCO)cc2)c1 [Compound 414, N-[4-Chloro-2-(3-methyl-benzylidene-hydrazinocarbonyl)-phenyl]-4-{[(2-hydroxy-ethyl)-methyl-amino]-methyl}-benzamide]
23 | < 3 | Cc1ccc(/C=N/NC(=O)c2cc(Cl)ccc2NC(=O)c2ccc(CN(C)CCO)cc2)cc1 [Compound 415, N-[4-Chloro-2-(4-methyl-benzylidene-hydrazinocarbonyl)-phenyl]-4-{[(2-hydroxy-ethyl)-methyl-amino]-methyl}-benzamide]
24 | 3.25 | Cc1ccc(/C=N/NC(=O)c2cc(Cl)ccc2NC(=O)c2ccc(CN(C)CCO)cc2)cc1C [Compound 416, N-[4-Chloro-2-(3,4-dimethyl-benzylidene-hydrazinocarbonyl)-phenyl]-4-{[(2-hydroxy-ethyl)-methyl-amino]-methyl}-benzamide]
25 | < 3 | CN(CCO)Cc1ccc(C(=O)Nc2ccc(Cl)cc2C(=O)N/N=C/c2ccc(Cl)c(C(F)(F)F)c2)cc1 [Compound 417, N-[4-Chloro-2-(4-chloro-3-trifluoromethyl-benzylidene-hydrazinocarbonyl)-phenyl]-4-{[(2-hydroxy-ethyl)-methyl-amino]-methyl}-benzamide]
26 | 29.6 | CN(CCO)Cc1ccc(C(=O)Nc2ccc(Cl)cc2C(=O)N/N=C/c2ccc(O)cc2)cc1 [Compound 421, N-[4-Chloro-2-(4-hydroxy-benzylidene-hydrazinocarbonyl)-phenyl]-4-{[(2-hydroxy-ethyl)-methyl-amino]-methyl}-benzamide]
27 | < 3 | CCN(CCO)Cc1cccc(C(=O)Nc2ccc(Cl)cc2C(=O)N/N=C/c2ccc(C)cc2)c1 [Compound 425, N-[4-Chloro-2-(4-methyl-benzylidene-hydrazinocarbonyl)-phenyl]-3-{[ethyl-(2-hydroxy-ethyl)-amino]-methyl}-benzamide]
28 | 1.89 | CCN(CCO)Cc1cccc(C(=O)Nc2ccc(Cl)cc2C(=O)N/N=C/c2ccc(C)c(C)c2)c1 [Compound 426, N-[4-Chloro-2-(3,4-dimethyl-benzylidene-hydrazinocarbonyl)-phenyl]-3-{[ethyl-(2-hydroxy-ethyl)-amino]-methyl}-benzamide]
